# Data published in US20250236902A1 (priority 2022, published 2025).
# Where two headings read alike, the source gives them in different places.
# How the values were obtained:
# [1] = system: 3NACP (Clostridium perfringens NA); type: binding; details: 0.3 mU/mL 3NACP
# [2] = system: 3NACP (Clostridium perfringens NA); type: biochemical; details: 3 mU/mL 3NACP; 1 μM inhibitor vs without
# H3N2 NA = type: biochemical, influenza H3N2
Structure (SMILES),"adsorption response of GCE-H3 to 3NACP (Normalized RCT) with inhibitor ([1]; 0.1 μM inhibitor, vs 0 μM)",adsorption response of GCE-H3 to 3NACP (Normalized RCT) with inhibitor ([1]; 1 μM inhibitor),impedimetric response of AuE-H3 to 3NACP (1/Normalized RCT) with inhibitor [2],inhibition effect on enzymatic response of AuE-H3 to H3N2 NA (normalized RCT) (H3N2 NA)
CCOC(=O)C1=C[C@@H](OC(CC)CC)[C@H](NC(C)=O)[C@@H](N)C1 [Oseltamivir],lower adsorption response,further decrease in response,decrease in response,weak inhibition effect
CCC(CC)[C@H](NC(C)=O)[C@@H]1[C@H](O)[C@@H](C(=O)O)C[C@H]1N=C(N)N [Peramivir],–,–,–,moderate inhibition effect
CC(=O)N[C@H]1[C@H]([C@H](O)[C@H](O)CO)OC(C(=O)O)=C[C@@H]1N=C(N)N [Zanamivir],–,–,–,strongest effect
